{"source": "patent US10413612B2", "about": "“Method of treating cancer with a biomaterial and a toll-like receptor agonist” (Dana-Farber Cancer Institute, Inc., priority 2016, dated 2019)", "key": {"[1]": {"test_system": "4T1-Luc2 syngeneic breast cancer cells", "settings": "for survival with compromised immune system: NK, CD8+ T or CD4+ T cells depleted or IFNAR1 neutralized; for efficacy (tumor recurrence, metastasis, survival), in words: scaffold placed in tumor resection site 10 days after inoculation; for survival benefit as innate immune activator component: hydrogel with IL-15sa and anti-PD-1 (devices 1, 14-16)", "protocol": "Seven-week-old female Balb/c mice were inoculated orthotopically with 100,000 4T1-Luc2 syngeneic breast cancer cells (into the fourth mammary fat pad). After 10 days, the mice were anesthetized, tumors were surgically resected, and compositions were placed in the resection site. […] The order of surgeries avoided systematic error by dividing up the groups. Standard follow-up care (wound clips, analgesic) was provided.\nFor the metastatic breast cancer model, 10^5 4T1-Luc2 or 4T1 cells (in 30 μl DPBS) were inoculated orthotopically into the fourth mammary pad of mice to generate a local tumor mass. Cells were injected without any incision to expose the fat pad. Mice were randomly assigned to treatment groups, and surgery was performed 10 days after tumor inoculation. For the metastatic melanoma and lung cancer models, 10^6B16-BL6 or 5×10^5 LLC cells (in 100 μl DPBS) were inoculated subcutaneously in mice to generate a local tumor mass. Mice were randomly assigned to treatment groups, and surgery was performed when tumor volumes reached ˜600 mm^3. While mice were kept under anesthesia at 2% isoflurane, the tumor was resected, and the hydrogel was placed in the site of the resultant cavity at the time of surgery. The wound was closed with medical clips. Control experiments were performed in which therapy was administered in solution at the site of surgery, intraperitoneally, or intravenously. For tumor re-challenge experiments, 10^4 4T1-Luc2 cells were inoculated in the contralateral fourth mammary fat pad. The surgeries were performed independently at least three times, and the surgeon was often blinded.\nAfter surgery, mice were inspected weekly for tumor recurrence and distal metastasis by bioluminescence imaging (BLI). To this end, 10 min after intraperitoneal injection of D-luciferin (150 mg/kg), a substrate of Luc2, the mice were anesthetized with 2% isoflurane and imaged using an IVIS Spectrum In Vivo Imaging System (Perkin Elmer).\nA series of compositions described above in Table 2 were evaluated in viva. In each group of evaluations, seven-week-old female Balb/c mice were inoculated orthotopically with 100,000 4T1-Luc2 syngeneic breast cancer cells (into the fourth mammary fat pad). After 10 days, mice were anesthetized, tumors were surgically resected, and the composition was placed in the resection site. Tumor relapse and metastasis were monitored via imaging over the course of 6 weeks.\nFemale BALB/cJ mice were inoculated orthotopically with 4T1-Luc2 breast cancer cells in their fourth mammary fat pad. Nine days later, the mice were imaged by bioluminescent IVIS imaging to confirm that the size of the tumors was consistent across animals to enable randomization into groups. On day 10 post-tumor inoculation, tumors (˜100 mm^3) were resected, and device 1 was placed in the tumor resection site. Controls included no treatment (sham), empty hydrogel (device 8/hydrogel 4), or delivery of the triple combination in solution (S+I+P)—via intraperitoneal injection, intravenous injection, or local administration."}, "TLR8": {"target": "T1, TLR8 (Homo sapiens, UniProt Q9NR97)", "T1 construct": "expressed in transfected cells; host or cells: HEK293", "T1 sequence (Q9NR97 27-1041)": "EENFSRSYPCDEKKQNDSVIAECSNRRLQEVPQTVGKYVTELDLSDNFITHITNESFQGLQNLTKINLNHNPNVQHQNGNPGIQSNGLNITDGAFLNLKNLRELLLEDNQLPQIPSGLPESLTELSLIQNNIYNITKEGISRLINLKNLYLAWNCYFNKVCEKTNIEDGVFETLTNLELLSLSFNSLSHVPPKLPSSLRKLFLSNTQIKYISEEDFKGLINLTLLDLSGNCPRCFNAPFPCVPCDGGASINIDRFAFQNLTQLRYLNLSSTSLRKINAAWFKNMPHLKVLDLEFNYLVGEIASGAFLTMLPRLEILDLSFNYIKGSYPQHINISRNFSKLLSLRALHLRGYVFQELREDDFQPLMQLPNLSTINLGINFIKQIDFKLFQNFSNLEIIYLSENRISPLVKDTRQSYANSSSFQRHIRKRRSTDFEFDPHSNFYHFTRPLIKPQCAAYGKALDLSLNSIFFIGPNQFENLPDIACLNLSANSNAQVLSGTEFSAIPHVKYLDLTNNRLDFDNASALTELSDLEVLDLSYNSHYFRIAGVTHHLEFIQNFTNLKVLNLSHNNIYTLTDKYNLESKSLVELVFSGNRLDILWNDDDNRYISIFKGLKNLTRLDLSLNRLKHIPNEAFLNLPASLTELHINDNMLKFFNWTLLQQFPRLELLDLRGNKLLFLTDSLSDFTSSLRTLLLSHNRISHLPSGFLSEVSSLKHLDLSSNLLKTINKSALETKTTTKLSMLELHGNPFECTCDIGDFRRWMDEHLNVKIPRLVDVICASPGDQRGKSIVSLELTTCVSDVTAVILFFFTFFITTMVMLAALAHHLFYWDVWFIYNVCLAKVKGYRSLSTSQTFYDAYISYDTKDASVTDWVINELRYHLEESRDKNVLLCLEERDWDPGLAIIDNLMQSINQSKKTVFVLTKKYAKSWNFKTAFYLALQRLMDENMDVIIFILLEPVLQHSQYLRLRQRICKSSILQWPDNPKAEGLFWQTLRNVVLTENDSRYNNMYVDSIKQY", "settings": "cited from earlier work"}, "TLR7 [2]": {"target": "T2, TLR7 (Homo sapiens, UniProt Q9NYK1)", "T2 construct": "expressed in transfected cells; host or cells: HEK293", "T2 sequence (Q9NYK1 27-1049)": "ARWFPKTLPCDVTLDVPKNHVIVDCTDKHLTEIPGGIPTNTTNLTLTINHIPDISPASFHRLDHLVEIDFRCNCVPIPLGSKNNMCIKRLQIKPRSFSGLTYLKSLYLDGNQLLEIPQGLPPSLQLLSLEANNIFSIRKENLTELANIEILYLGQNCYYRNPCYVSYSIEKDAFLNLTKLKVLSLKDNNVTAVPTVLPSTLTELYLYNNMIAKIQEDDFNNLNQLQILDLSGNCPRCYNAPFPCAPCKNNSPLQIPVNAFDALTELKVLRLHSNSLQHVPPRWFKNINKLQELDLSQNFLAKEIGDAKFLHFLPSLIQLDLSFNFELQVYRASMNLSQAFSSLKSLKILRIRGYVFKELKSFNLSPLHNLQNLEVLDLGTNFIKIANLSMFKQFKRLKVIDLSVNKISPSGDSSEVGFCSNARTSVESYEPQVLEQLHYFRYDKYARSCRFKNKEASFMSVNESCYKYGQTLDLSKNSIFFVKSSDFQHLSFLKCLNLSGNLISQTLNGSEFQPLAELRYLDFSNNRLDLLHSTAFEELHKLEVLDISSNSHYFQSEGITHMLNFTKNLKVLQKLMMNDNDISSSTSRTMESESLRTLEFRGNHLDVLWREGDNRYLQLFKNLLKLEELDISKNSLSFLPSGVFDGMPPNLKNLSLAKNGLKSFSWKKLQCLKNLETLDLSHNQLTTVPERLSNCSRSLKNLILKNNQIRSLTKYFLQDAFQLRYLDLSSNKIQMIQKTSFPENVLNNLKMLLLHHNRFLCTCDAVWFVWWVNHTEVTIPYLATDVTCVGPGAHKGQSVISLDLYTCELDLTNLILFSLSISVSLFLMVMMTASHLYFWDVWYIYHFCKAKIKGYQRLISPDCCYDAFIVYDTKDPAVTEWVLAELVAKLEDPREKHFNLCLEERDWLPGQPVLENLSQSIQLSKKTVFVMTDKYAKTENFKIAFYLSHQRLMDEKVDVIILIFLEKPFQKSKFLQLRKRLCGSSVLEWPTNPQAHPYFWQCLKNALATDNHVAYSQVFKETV", "settings": "TLR7-transfected HEK293 cells; cited from earlier work"}, "[3]": {"experiment": "In vivo release study (fluorescence IVIS imaging)", "set-up": "species or system non-tumor-bearing mice", "settings": "mouse, in vivo", "source_text": "To evaluate the in vivo release profiles of Cy7 carboxylic acid (a model compound for R848), anti-PD-1, IL-15sa, and 2′3′-cGAMP, hydrogels containing the fluorophore or one of the fluorescently labeled payloads were surgically implanted into non-tumor-bearing mice.\nThe loading and release properties of the hydrogel were examined in additional experiments. […] It was then confirmed that the hydrogel extends the release of the small molecules and biologics in vivo. Cy7 carboxylic acid (Cy7-CA) was used as a model small molecule payload, as its physical properties are very similar to those of resiquimod (R848). Cy7-CA was administered to non-tumor-bearing mice, either in solution or loaded in a scaffold placed by the fourth mammary fat pad. The mice were assessed by fluorescence IVIS imaging (FIG. 37B), and the data were quantified (FIG. 37C). Whereas a loss of ˜60% of the signal was detected within two hours of administration of the fluorophore in solution, this amount of signal decay required 24 hours for the fluorophore loaded in the hydrogel. Over this time course, there was a […] for the latter group, on average.\nTo confirm that the hydrogel sustains the release of the small molecule and biologics in vivo, fluorescently labeled versions of 2 ? […]"}, "TLR7 [4]": {"target": "T2, TLR7", "settings": "cited from earlier work"}, "4T1-Luc2 cells [5]": {"test_system": "4T1-Luc2 cells", "experiment": "Tumor re-challenge of surviving mice", "assay_type": "in vivo", "settings": "mice with durable survival after loaded hydrogel", "protocol": "The wound was closed with medical clips.\nTo gain insights into the soluble factors that are associated with the activation of innate and adaptive immune cells, the levels of cytokines in peripheral blood were measured. At multiple time points post-surgery, plasma was collected and subsequently analyzed by multiplexing laser bead technology. […] Indeed, the induction of a memory response was confirmed by re-challenging the surviving mice, 100% of which rejected the freshly inoculated 4T1-Luc2 cells (FIG. 94A)."}, "4T1-Luc2 cells [6]": {"test_system": "4T1-Luc2 cells", "experiment": "Non-resected orthotopic 4T1-Luc2 tumors: peritumoral hydrogel or intratumoral injection", "assay_type": "in vivo, mice", "settings": "single intratumoral (IT) injection", "source_text": "In certain embodiments, intraoperative placement of the immunotherapy-loaded hydrogel is required for therapeutic benefit."}}, "note": "Values joined by “and” are separate entries in the source; they are usually repeats but may differ in a detail not shown here. Identical values can stand only once.", "data": [{"compound": "Cc1cccc(-c2[nH]c(CNc3ccccc3F)nc2-c2ccc3ncnn3c2)n1", "note": "[EW7197]", "values": [{"measurement": "efficacy of hydrogel with IL-15 superagonist, anti-PD-1 and the small molecule", "setting": "[1]; small molecule dissolved in DMSO", "result": "provided less efficacious results"}]}, {"compound": "IL-21: pleiotropic cytokine", "values": [{"measurement": "survival benefit as cytokine component", "setting": "[1]; hydrogel with 2′3′-cGAMP and anti-PD-1 (devices 1, 13)", "result": "had little impact"}]}, {"compound": "CCCCNc1nc(N)c2nc(O)n(Cc3ccc(C(=O)NCC(=O)O)cc3)c2n1", "note": "[CL264]", "values": [{"measurement": "concentration without stimulation of TLR8", "setting": "TLR8", "result": "> 10", "unit": "µg/mL"}, {"measurement": "activating concentration, times less than imiquimod", "setting": "TLR7 [2]", "result": "5-10 times"}, {"measurement": "concentration inducing NF-κB activation", "setting": "TLR7 [2]", "result": 0.1, "unit": "µM"}]}, {"compound": "C[N+]1=C(/C=C/C2=CC(=C/C=C3/N(CCCCCC(=O)O)c4ccccc4C3(C)C)CCC2)C(C)(C)c2ccccc21.[Cl-]", "note": "[Cy7-CA, Cy7 carboxylic acid]", "values": [{"measurement": "increase in signal, hydrogel vs solution", "setting": "[3]", "result": "roughly three"}]}, {"compound": "CCCCNc1nc(N)c2nc(O)n(Cc3ccc(C(=O)NCC(=O)NCCCNCCCCNCCCN)cc3)c2n1", "note": "[CL307, N1-glycinyl[4-((6-amino-2-(butylamino)-8-hydroxy-9H-purin-9-yl)methyl)benzoyl]spermine]", "values": [{"measurement": "concentration inducing robust NF-κB activation", "setting": "TLR7 [4]", "result": "≤ 20 nM and ≤ 10 ng/ml"}]}, {"compound": "Nc1ncnc2c1ncn2C1O[C@@H]2CO[P@@](=O)([S-])O[C@H]3[C@@H](O)[C@H](n4cnc5c(N)ncnc54)O[C@@H]3CO[P@@](=O)([S-])O[C@@H]1[C@@H]2O.[Na+].[Na+]", "note": "(stereo partly shown) [STING-RR, 2′3′-c-di-AM(PS)2 (Rp,Rp)]", "values": [{"measurement": "surviving mice that rejected / survived re-challenge", "setting": "4T1-Luc2 cells [5]", "result": 100, "unit": "%"}, {"measurement": "survival with compromised immune system", "setting": "[1]", "result": "exhibited reduced survival"}, {"measurement": "efficacy (tumor recurrence, metastasis, survival), in words", "setting": "[1]", "result": "prevented most effectively"}, {"measurement": "survival", "setting": "4T1-Luc2 cells [6]", "result": "did not prolong survival"}]}, {"compound": "CCOC(=O)C1=Cc2ccc(-c3cccc(C#N)c3)cc2N=C(N)C1", "note": "[TL8-506]", "values": [{"measurement": "potency in inducing NF-κB activation relative to CL075", "setting": "TLR8; TLR8-transfected HEK293 cells", "result": "~25", "unit": "×"}, {"measurement": "potency in inducing NF-κB activation relative to R848", "setting": "TLR8; TLR8-transfected HEK293 cells", "result": "~50", "unit": "×"}]}, {"compound": "CCOCc1nc2c(N)nc3ccccc3c2n1CC(C)(C)O", "note": "[Device R848, resiquimod]", "values": [{"measurement": "surviving mice that rejected / survived re-challenge", "setting": "4T1-Luc2 cells [5]", "result": 100, "unit": "%"}, {"measurement": "survival with compromised immune system", "setting": "[1]", "result": "exhibited reduced survival"}, {"measurement": "survival benefit by mode of administration", "setting": "[1]; hydrogel vs solution (weekly IV, weekly IP, local with empty hydrogel)", "result": "survival benefit was observed only when R848 was loaded in the hydrogel"}, {"measurement": "survival benefit as innate immune activator component", "setting": "[1]", "result": "conferred meaningful benefit"}, {"measurement": "tolerability (body weight)", "setting": "[1]; mouse, in vivo", "result": "well tolerated"}, {"measurement": "efficacy (tumor recurrence, metastasis, survival), in words", "setting": "[1]", "result": "prevented most effectively"}, {"measurement": "survival benefit", "setting": "[1]; three consecutive daily IP injections (200 μg)", "result": "failed to confer robust survival benefit"}, {"measurement": "survival", "setting": "4T1-Luc2 cells [6]", "result": "did not prolong survival"}]}, {"compound": "polyinosinic:polycytidylic acid [poly(I:C)]", "values": [{"measurement": "survival benefit as innate immune activator component", "setting": "[1]", "result": "had little impact"}]}]}
